Experimental findings from ChEMBL document CHEMBL5442379, “ASAP - SARS-CoV-2 nsp3 macrodomain single point” (2024) are described below.

The assay concerns the target Replicase polyprotein 1ab (Severe acute respiratory syndrome coronavirus 2) (UniProt P0DTD1).

Description: Functional biochemical assay to identify treatments for viral infectious disease that targets SARS-COV-2 nsp3 macrodomain, whereby the mechanism of action displaces an ADP-Ribose modified peptide from the binding site. Utilizing a time-resolved fluorescence method to measure binding by reading the emitted fluorescence intensity in two wavelengths.

As a reminder, the inhibition is the drop in the measured response relative to a control, in per cent. Take `CCO[C@@H]1C[C@@H](Nc2ncnc3[nH]ccc23)C12CCOCC2`: under “Concentration 50.0 uM, Number of replicates 2.0, Standard deviation 3.029 %”, the inhibition was 2.32%. `c1ccc(CN2CCO[C@@H](CNc3ncnc4nc[nH]c34)C2)cc1`: the inhibition (Concentration 50.0 uM, Number of replicates 2.0, Standard deviation 1.424 %) is -2.44%.

As for `Cc1cccc([C@@H]2CCCN2c2ncnc3[nH]ccc23)n1`, the inhibition (Concentration 50.0 uM, Number of replicates 2.0, Standard deviation 4.141 %) was found to be 0.182%.

Turning to `OC[C@@H](Nc1ncnc2[nH]c(I)cc12)c1ccccc1`, under “Concentration 50.0 uM, Number of replicates 2.0, Standard deviation 1.35 %”, the inhibition stood at 26.1%. For the molecule `Cc1c[nH]nc1C(=O)N1CCC(c2ccn3ncc(C(=O)N4CCCCC4)c3c2)CC1`, the inhibition was found to be 8.47% (Concentration 49.75 uM, Number of replicates 2.0, Standard deviation 6.018 %) and 27.4% (Concentration 99.5 uM, Number of replicates 2.0, Standard deviation 4.753 %). For `Cc1n[nH]c(C)c1C(=O)N1CCC(c2ccn3ncc(C(=O)N4CCCCC4)c3c2)CC1`, the inhibition was 10.8% (Concentration 49.75 uM, Number of replicates 2.0, Standard deviation 0.408 %) and 23.3% (Concentration 99.5 uM, Number of replicates 2.0, Standard deviation 0.015 %). Consider `Cc1[nH]c2ncnc(NC(=O)C3CCC(F)(F)CC3)c2c1C`, for which the inhibition (Concentration 50.0 uM, Number of replicates 2.0, Standard deviation 0.519 %) amounted to 2.15%. As to `NC(=O)c1ccccc1NC(=O)c1ncnc2[nH]ccc12`, the inhibition (Concentration 50.0 uM, Number of replicates 2.0, Standard deviation 0.083 %) was -2.59%. For the molecule `C=CCn1c(Sc2ncnc3[nH]ccc23)nc2sccc2c1=O`, the inhibition (Concentration 50.0 uM, Number of replicates 2.0, Standard deviation 0.219 %) was determined as 6.3%.

`O=C(Nc1ccccc1)Nc1ccc(C(=O)N2CCOCC23CCC3)cc1`: the inhibition is -5.18% (Concentration 49.75 uM, Number of replicates 2.0, Standard deviation 0.885 %) and -3.18% (Concentration 99.5 uM, Number of replicates 2.0, Standard deviation 3.072 %). Regarding `O=C(Cc1ccon1)Nc1ncnc2[nH]cnc12`, the inhibition (Concentration 50.0 uM, Number of replicates 2.0, Standard deviation 0.023 %) was -1.61%.

Consider `O=C1C[C@@]2(CCCN(c3ncnc4[nH]ccc34)C2)CN1`, for which, where the note is “Concentration 50.0 uM, Number of replicates 2.0, Standard deviation 0.483 %”, the inhibition was -2.45%. On to `Cc1ccc(S(=O)(=O)Nc2ccccc2F)cc1C(=O)Nc1cnc2[nH]ncc2c1`, for which the inhibition (Concentration 50.0 uM, Number of replicates 2.0, Standard deviation 3.248 %) was found to be 0.764%. With `CN1CCC[C@H](NC(=O)c2cnn3ccc(C4CCN(C(=O)c5ccccc5)CC4)cc23)C1`, the inhibition is, setting by setting: (Concentration 49.75 uM, Number of replicates 2.0, Standard deviation 0.821 %) -6.99%; (Concentration 99.5 uM, Number of replicates 2.0, Standard deviation 3.447 %) -5.44%. With `O=C(Nc1cnc2[nH]ncc2c1)C1(c2ccccc2)CC1`, the inhibition (Concentration 50.0 uM, Number of replicates 2.0, Standard deviation 8.824 %) turned out to be 3.21%. As for `O=C(O)c1ccc(C(=O)N2CCC(c3ccn4ncc(C(=O)N5CCCCC5)c4c3)CC2)o1`, the inhibition runs as follows: (Concentration 49.75 uM, Number of replicates 2.0, Standard deviation 3.483 %) 40.5%; (Concentration 99.5 uM, Number of replicates 2.0, Standard deviation 5.512 %) 58.1%. In the case of `NC(=O)[C@@H]1CCN(C(=O)c2cnc3[nH]c(=O)[nH]c(=O)c3c2)C1`, the inhibition (Concentration 50.0 uM, Number of replicates 2.0, Standard deviation 2.086 %) was -6.32%. Regarding `COCc1cc(CNc2cc3c(O)ncnc3cn2)no1`, the inhibition (Concentration 50.0 uM, Number of replicates 2.0, Standard deviation 0.223 %) was found to be 3.31%. Consider `CCN(Cc1nnc(C)o1)C(=O)c1cnn2ccc(C3CCN(C(=O)c4ccccc4)CC3)cc12`, for which the inhibition (Concentration 49.75 uM, Number of replicates 2.0, Standard deviation 14.085 %) turned out to be 10% and the inhibition (Concentration 99.5 uM, Number of replicates 2.0, Standard deviation 1.269 %) was -5.31%. Regarding `NCC(F)(F)CNC(=O)c1ccc(NC(=O)Nc2ccccc2)cc1`, the inhibition runs as follows: (Concentration 49.75 uM, Number of replicates 2.0, Standard deviation 4.8 %) -0.965%; (Concentration 99.5 uM, Number of replicates 2.0, Standard deviation 1.089 %) -1.17%. On to `c1cc(CNc2ncnc3nc[nH]c23)n2ncnc2c1`, for which the inhibition is, setting by setting: (Concentration 50.0 uM, Number of replicates 2.0, Standard deviation 1.124 %) 1.35%; (Concentration 100.0 uM, Number of replicates 2.0, Standard deviation 5.338 %) 10%. Turning to `O=C(NCC1(O)CCOCC1)c1cnn2ccc(C3CCN(C(=O)c4ccccc4)CC3)cc12`, the inhibition is -3.96% (Concentration 49.75 uM, Number of replicates 2.0, Standard deviation 3.347 %) and -1.1% (Concentration 99.5 uM, Number of replicates 2.0, Standard deviation 3.334 %). As for `CC(C)n1cc(S(=O)(=O)Nc2cnc3[nH]ncc3c2)cn1`, the inhibition (Concentration 50.0 uM, Number of replicates 4.0, Standard deviation 3.956 %) was found to be 1.55%. Regarding `Cc1noc([C@@H]2CCCN(c3ncnc4[nH]ccc34)C2)n1`, the inhibition (Concentration 50.0 uM, Number of replicates 2.0, Standard deviation 1.725 %) was 1.92%. `c1ccc2c(-c3c[nH]c4ncccc34)n[nH]c2c1`: for the setting “Concentration 50.0 uM, Number of replicates 2.0, Standard deviation 4.4 %”, the inhibition is -7.25%. For the molecule `CC1(C)CNCCN1C(=O)c1ccc(NC(=O)Nc2ccccc2)cc1`, the inhibition reads like this: (Concentration 49.75 uM, Number of replicates 2.0, Standard deviation 5.654 %) 2.24%; (Concentration 99.5 uM, Number of replicates 2.0, Standard deviation 1.022 %) 1.39%. Regarding `O=C(NCc1ncccn1)c1cnn2ccc(C3CCN(C(=O)c4ccccc4)CC3)cc12`, the inhibition runs as follows: (Concentration 49.75 uM, Number of replicates 2.0, Standard deviation 2.653 %) -0.074%; (Concentration 99.5 uM, Number of replicates 2.0, Standard deviation 0.514 %) -6.66%. Take `O=C(N[C@H]1CCC[C@H]1C(=O)O)c1cnn2ccc(C3CCN(C(=O)c4ccccc4)CC3)cc12`: the inhibition came out at 59.6% (Concentration 49.75 uM, Number of replicates 2.0, Standard deviation 2.492 %) and 73.5% (Concentration 99.5 uM, Number of replicates 2.0, Standard deviation 0.074 %).

For `O=C(Nc1ccc(C(=O)NCc2c(C(=O)O)[nH]c3ccccc23)cc1)NC1CC1`, the inhibition (Concentration 50.0 uM, Number of replicates 2.0, Standard deviation 1.193 %) stood at 86.2%. Turning to `Cc1nc(NC(=O)c2ccnn2C(C)C)c2cc[nH]c2n1`, the inhibition is, setting by setting: (Concentration 50.0 uM, Number of replicates 2.0, Standard deviation 4.637 %) -2.64%; (Concentration 100.0 uM, Number of replicates 2.0, Standard deviation 4.768 %) -4.35%. With `OC[C@H](Cc1ccccc1)Nc1ncnc2[nH]ccc12`, the inhibition by setting is: (Concentration 50.0 uM, Number of replicates 2.0, Standard deviation 2.629 %) -1.29%; (Concentration 100.0 uM, Number of replicates 2.0, Standard deviation 0.62 %) 8.93%. In the case of `Cc1ncc(NCc2cc3n(n2)CCOC3)cc1C(N)=O`, the inhibition (Concentration 50.0 uM, Number of replicates 2.0, Standard deviation 4.482 %) was found to be 0.46%. As to `O=C(N[C@@H]1CCCNC1=O)c1cnn2ccc(C3CCN(C(=O)c4ccccc4)CC3)cc12`, the inhibition is -3.16% (Concentration 49.75 uM, Number of replicates 2.0, Standard deviation 2.776 %) and -4.87% (Concentration 99.5 uM, Number of replicates 2.0, Standard deviation 2.396 %).

In the case of `Cc1cc(C(=O)N2CCC(c3ccn4ncc(C(=O)N5CCCCC5)c4c3)CC2)[nH]n1`, the inhibition reads like this: (Concentration 49.75 uM, Number of replicates 2.0, Standard deviation 4.639 %) 16.6%; (Concentration 99.5 uM, Number of replicates 2.0, Standard deviation 3.947 %) 31.6%. As for `O=C(Nc1cnc2[nH]ncc2c1)c1ccc(Oc2cccc(Br)c2)nc1`, the inhibition (Concentration 50.0 uM, Number of replicates 2.0, Standard deviation 1.64 %) is -0.183%. As for `O=C(Nc1cnc2[nH]ncc2c1)c1noc2c1CCCC2`, where the note is “Concentration 50.0 uM, Number of replicates 2.0, Standard deviation 0.458 %”, the inhibition is -1.4%. For `O=C(c1ccccc1)N1CCC(c2ccn3ncc(C(=O)N4CCc5nc[nH]c5C4)c3c2)CC1`, the inhibition came to 11.2% (Concentration 49.75 uM, Number of replicates 2.0, Standard deviation 2.532 %) and 20.3% (Concentration 99.5 uM, Number of replicates 2.0, Standard deviation 2.098 %). For `O=C(Cc1ccns1)Nc1ncnc2[nH]cnc12`, the inhibition is, setting by setting: (Concentration 49.75 uM, Number of replicates 2.0, Standard deviation 7.374 %) -9.5%; (Concentration 99.5 uM, Number of replicates 2.0, Standard deviation 4.303 %) -3.24%. Turning to `Cc1[nH]c2ncnc(NC(=O)c3ccncc3Cl)c2c1C`, the inhibition runs as follows: (Concentration 50.0 uM, Number of replicates 2.0, Standard deviation 1.372 %) 69.6%; (Concentration 100.0 uM, Number of replicates 2.0, Standard deviation 0.621 %) 85.6%. As to `O=C1CCN(C(=O)c2cnn3ccc(C4CCN(C(=O)c5ccccc5)CC4)cc23)CCN1`, the inhibition (Concentration 49.75 uM, Number of replicates 2.0, Standard deviation 0.064 %) was -2.4% and the inhibition (Concentration 99.5 uM, Number of replicates 2.0, Standard deviation 5.989 %) is -7.81%. In the case of `OC[C@@H]1CN(c2ncnc3nc[nH]c23)CCC1(F)F`, the inhibition (Concentration 50.0 uM, Number of replicates 2.0, Standard deviation 0.855 %) came out at 1.75%. Regarding `CCc1n[nH]c(NC(=O)c2ccc(NC(=O)Nc3ccccc3)cc2)c1Br`, the inhibition by setting is: (Concentration 49.75 uM, Number of replicates 2.0, Standard deviation 2.077 %) -5.57%; (Concentration 99.5 uM, Number of replicates 2.0, Standard deviation 0.313 %) 0.467%. In the case of `C[C@@]1(C(N)=O)CCCN1C(=O)c1cnn2ccc(C3CCN(C(=O)c4ccccc4)CC3)cc12`, the inhibition by setting is: (Concentration 49.75 uM, Number of replicates 2.0, Standard deviation 3.259 %) -8.04%; (Concentration 99.5 uM, Number of replicates 2.0, Standard deviation 21.157 %) 10.4%.

As for `O=C(O)c1cnc(C(=O)N2CCC(c3ccn4ncc(C(=O)N5CCCCC5)c4c3)CC2)cn1`, the inhibition was determined as 27.5% (Concentration 49.75 uM, Number of replicates 2.0, Standard deviation 0.482 %) and 46.4% (Concentration 99.5 uM, Number of replicates 2.0, Standard deviation 1.164 %). With `c1ccc(-c2cc(CNc3ncnc4[nH]ccc34)on2)cc1`, the inhibition was 7.14% (Concentration 50.0 uM, Number of replicates 2.0, Standard deviation 8.772 %) and -3.46% (Concentration 100.0 uM, Number of replicates 2.0, Standard deviation 1.845 %). As for `Cc1nc(C)c(CC(=O)Nc2cnc3[nH]ncc3c2)c(=O)[nH]1`, the inhibition (Concentration 50.0 uM, Number of replicates 2.0, Standard deviation 0.296 %) is 4.83%.

On to `OCc1cn([C@@H]2CCCN(c3ncnc4[nH]ccc34)C2)nn1`, for which, for the setting “Concentration 50.0 uM, Number of replicates 2.0, Standard deviation 2.708 %”, the inhibition was -0.682%.
